Results as given in patent publication US20190358371A1, “HEMOSTATIC DEVICES AND METHODS OF USE” (priority 2016, published 2019).

Legend:
[1] = in vitro elution of rifampin and minocycline from p22-27.5 polymers with TXA in release media (Example 15); type: physicochemical; conditions: PBS pH 7.4, TXA 0, 0.05 or 5 mg/mL, over 25 hours
Protocol: B1=PBS pH 7.4; B2=PBS, pH 7.4+TXA (0.05 mg/mL); B3=PBS, pH 7.4+TXA (5 mg/mL).

[2] = stability of rifampin and minocycline in PBS with and without tranexamic acid (Example 14); type: physicochemical; conditions: room temperature (about 23 C) and 37 C
blood = assay: time required to induce blood clotting in vitro (Examples 17 and 18); type: biochemical
Protocol: Tests were conducted to compare the time required to induce blood clotting in vitro when different amounts of hemostatic agent is administered in the presence of TYRX (degradable mesh coated with P22-27.5 containing rifampin and minocycline), as shown in FIG. 35.
Tests were conducted to compare the time required for different hemostatic agents to induce blood clotting in vitro versus the time required to induce blood clotting in vitro when no hemostatic agent is administered. In particular, the time required to induce blood clotting was plotted for blood alone, TYRX), Surgicel, TYRX with 1.6 mg of TXA, 1.2 mg of TXA alone and TYRX with 200 mg of TXA. In this example, TYRX refers to a Glycoprene mesh that is coated with P22-27.5 (a polymer in the P22-X family) containing Rifampin and Minocycline.

[3] = given preoperatively; cited from earlier work

| elution rate from p22-27.5 polymer, effect of TXA in the release media [1] | percentage area in mixtures of rifampin and minocycline in PBS with versus without tranexamic acid [2] | SMILES | time required to induce blood clotting in vitro (blood; 1.2 mg of TXA alone) | Clotting time with higher amounts of TXA (blood; 1.6 mg TXA vs 200 mg of TXA, in the presence of TYRX) | time to reach plasma concentrations [3] |
| --- | --- | --- | --- | --- | --- |
| not affected | substantially the same | CO[C@H]1/C=C/O[C@@]2(C)Oc3c(C)c(O)c4c(O)c(c(/C=N/N5CCN(C)CC5)c(O)c4c3C2=O)NC(=O)/C(C)=C\C=C\[C@H](C)[C@H](O)[C@@H](C)[C@@H](O)[C@@H](C)[C@H](OC(C)=O)[C@@H]1C [rifampin] |  |  |  |
|  |  | NC[C@H]1CC[C@H](C(=O)O)CC1 [tranexamic acid] | about 19 minutes | increased | 5 to 15 min |
